In patent publication US11591365B2, “BCL9 peptides and variants thereof” (WntRx Pharmaceuticals Inc., priority 2017, dated 2023):
Where a SMILES comes first, the peptide text is derived from it. Bridges are numbered along the chain shown (N, C = ends). [ ]: non-standard residue; d: D form. The star is where a group is joined. 2Nal = N[C@@H](Cc1ccc2ccccc2c1)C(=O)O; NMeCha = CN[C@@H](CC1CCCCC1)C(=O)O; NMeR = CN[C@@H](CCCNC(=N)N)C(=O)O; Palmitoyl = CCCCCCCCCCCCCCCC(=O)*; hArg = N=C(N)NCCCC[C@H](N)C(=O)O; tBuAla = CC(C)(C)C[C@H](N)C(=O)O; NMeQ = CN[C@@H](CCC(N)=O)C(=O)O; Cha = N[C@@H](CC1CCCCC1)C(=O)O; Cba = N[C@@H](CC1CCC1)C(=O)O; PEG4 = NCCOCCOCCOCCOCCC(=O)O; S5 = C=CCCC[C@](C)(N)C(=O)O

What follows are compounds tested on Colo320DM (assay: Colo320DM cell viability).
Type: cell-based, human
Source text: In some embodiments, a polypeptide described herein inhibits binding of BLC9 to β-catenin when assessed in a cell-viability assay. In some embodiments, the cell-viability assay is a CellTiterGlo luminescent assay, wherein the viability of cells is quantitatively measured. Various cell lines, transformed cell lines or primary cells derived from a healthy subject or subject suffering from a disease can be used in this assay.

IC50 [nM] | Structure (SMILES)
2430 | CC[C@H](C)[C@@H]1NC(=O)[C@@](C)(NC(=O)[C@H](CCCNC(=N)N)NC(=O)[C@H](CC(C)C)NC(=O)[C@@H](NC(=O)[C@H](CCC(N)=O)NC(=O)[C@H](CC(C)C)NC(=O)[C@H](CO)NC(=O)[C@H](CCCNC(=N)N)N(C)C(=O)[C@H](CCC(N)=O)NC(=O)[C@H](CCCNC(=N)N)NC(=O)[C@H](Cc2c[nH]cn2)NC(C)=O)[C@@H](C)O)CCCC=CCCC[C@@](C)(C(=O)N[C@@H](CC2CCCCC2)C(=O)N[C@@H](Cc2ccc3ccccc3c2)C(N)=O)NC(=O)[C@H](CCCNC(=N)N)NC(=O)[C@H](CCC(N)=O)NC1=O [SEQ ID NO: 184, HRQ(N-MeArg)SLQTLRXIQRX(Cha)(2-Nal)] (Ac-HRQ[NMeR]SLQTLR[S5]IQR[S5][Cha][2Nal]-NH2; staple 11-15)
2670 | CC[C@H](C)[C@@H]1NC(=O)[C@@](C)(NC(=O)[C@H](CCCNC(=N)N)NC(=O)[C@H](CC(C)C)NC(=O)[C@@H](NC(=O)[C@H](CCC(N)=O)NC(=O)[C@H](CC(C)C)NC(=O)[C@H](CO)NC(=O)[C@H](CCCNC(=N)N)NC(=O)[C@H](CCC(N)=O)N(C)C(=O)[C@H](CCCNC(=N)N)NC(=O)[C@H](Cc2c[nH]cn2)NC(C)=O)[C@@H](C)O)CCCC=CCCC[C@@](C)(C(=O)N[C@@H](CC(C)(C)C)C(=O)N[C@@H](Cc2ccc3ccccc3c2)C(N)=O)NC(=O)[C@H](CCCNC(=N)N)NC(=O)[C@H](CCC(N)=O)NC1=O [SEQ ID NO: 193, HR(N-MeGln)RSLQTLRXIQRX(β-tBu-Ala)(2-Nal)] (Ac-HR[NMeQ]RSLQTLR[S5]IQR[S5][tBuAla][2Nal]-NH2; staple 11-15)
560 | CC[C@H](C)[C@@H]1NC(=O)[C@@](C)(NC(=O)[C@H](CCCNC(=N)N)NC(=O)[C@H](CC(C)C)NC(=O)[C@]2(C)CCCC=CCCC[C@](C)(NC(=O)[C@H](CCC(=O)O)NC(=O)[C@H](CCCNC(=N)N)NC(C)=O)C(=O)N[C@@H](CO)C(=O)N[C@@H](CC(C)C)C(=O)N[C@@H](CCC(N)=O)C(=O)N2)CCCC=CCCC[C@@](C)(C(=O)N[C@@H](CC(C)C)C(=O)N[C@@H](Cc2ccc3ccccc3c2)C(N)=O)NC(=O)[C@H](CCCNC(=N)N)NC(=O)[C@H](CCC(N)=O)NC1=O [SEQ ID NO: 39, REXSLQXLRZIQRZL(2-Nal)] (Ac-RE[S5]SLQ[S5]LR[S5]IQR[S5]L[2Nal]-NH2; staple 3-7, 10-14)
2230 | CC[C@H](C)[C@@H]1NC(=O)[C@@](C)(NC(=O)[C@H](CCCNC(=N)N)NC(=O)[C@H](CC(C)C)NC(=O)[C@@H](NC(=O)[C@H](CCC(N)=O)N(C)C(=O)[C@H](CC2CCCCC2)N(C)C(=O)[C@H](CO)NC(=O)[C@H](CCCNC(=N)N)NC(=O)[C@H](CCC(N)=O)NC(=O)[C@H](CCCNC(=N)N)NC(=O)[C@H](Cc2c[nH]cn2)NC(C)=O)[C@@H](C)O)CCCC=CCCC[C@@](C)(C(=O)N[C@@H](CC2CCCCC2)C(=O)N[C@@H](Cc2ccc3ccccc3c2)C(N)=O)NC(=O)[C@H](CCCNC(=N)N)NC(=O)[C@H](CCC(N)=O)NC1=O [SEQ ID NO: 186, HRQRS(N-MeCha)(N-MeGln)TLRXIQRX(Cha)(2-Nal)] (Ac-HRQRS[NMeCha][NMeQ]TLR[S5]IQR[S5][Cha][2Nal]-NH2; staple 11-15)
3070 | CC[C@H](C)[C@@H]1NC(=O)[C@@](C)(NC(=O)[C@H](CCCNC(=N)N)NC(=O)[C@H](CC(C)C)NC(=O)[C@@H](NC(=O)[C@H](CCC(N)=O)N(C)C(=O)[C@H](CC(C)C)NC(C)=O)[C@@H](C)O)CCCC=CCCC[C@@](C)(C(=O)N[C@@H](CC2CCC2)C(=O)N[C@@H](Cc2ccc3ccccc3c2)C(=O)NCCC(=O)NCCC(N)=O)NC(=O)[C@H](CCCNC(=N)N)NC(=O)[C@H](CCC(N)=O)NC1=O (single isomer, unassigned) [SEQ ID NO: 111, L(N-methylQ)TLRXIQRX(CBA)(2-Nal)(β-Ala)(β-Ala)]
1490 | CC[C@H](C)[C@@H]1NC(=O)[C@@](C)(NC(=O)[C@H](CCCNC(=N)N)NC(=O)[C@H](CC(C)C)NC(=O)[C@@H](NC(=O)[C@H](CCC(N)=O)NC(=O)[C@H](CC(C)C)NC(=O)[C@H](CO)NC(=O)[C@H](CCCNC(=N)N)NC(=O)[C@H](CCC(=O)O)NC(=O)[C@H](CCCNC(=N)N)NC(=O)[C@H](Cc2c[nH]cn2)NC(C)=O)[C@@H](C)O)CCCC=CCCC[C@@](C)(C(=O)N[C@@H](CC2CCC2)C(=O)N[C@@H](Cc2ccc3ccccc3c2)C(N)=O)NC(=O)[C@H](CCCNC(=N)N)NC(=O)[C@H](CCC(N)=O)NC1=O [SEQ ID NO: 14, HRERSLQTLRXIQRX(CBA)(2-Nal)] (Ac-HRERSLQTLR[S5]IQR[S5][Cba][2Nal]-NH2; staple 11-15)
6800 | CC[C@H](C)[C@@H]1NC(=O)[C@@](C)(NC(=O)[C@H](CCCNC(=N)N)NC(=O)[C@H](CC(C)C)NC(=O)[C@@H](NC(=O)[C@H](CCC(N)=O)NC(=O)[C@H](CC(C)C)NC(=O)[C@H](CO)NC(=O)[C@H](CCCNC(=N)N)NC(=O)[C@H](CCC(=O)O)NC(=O)[C@H](CCCNC(=N)N)NC(C)=O)[C@@H](C)O)CCCC=CCCC[C@@](C)(C(=O)N[C@@H](CC(C)C)C(=O)N[C@@H](Cc2ccc3ccccc3c2)C(N)=O)NC(=O)[C@H](CCCNC(=N)N)NC(=O)[C@H](CCC(N)=O)NC1=O [SEQ ID NO: 5, RERSLQTLRXIQRXL(2-Nal)] (Ac-RERSLQTLR[S5]IQR[S5]L[2Nal]-NH2; staple 10-14)
1900 | CC[C@H](C)[C@@H]1NC(=O)[C@@](C)(NC(=O)[C@H](CCCNC(=N)N)NC(=O)[C@H](CC(C)C)NC(=O)[C@@H](NC(=O)[C@H](CCC(N)=O)N(C)C(=O)[C@H](CC2CCCCC2)NC(=O)[C@H](CO)NC(=O)[C@H](CCCNC(=N)N)NC(=O)[C@H](CCC(N)=O)NC(=O)[C@H](CCCNC(=N)N)NC(=O)[C@H](Cc2c[nH]cn2)NC(C)=O)[C@@H](C)O)CCCC=CCCC[C@@](C)(C(=O)N[C@@H](CC2CCCCC2)C(=O)N[C@@H](Cc2ccc3ccccc3c2)C(N)=O)NC(=O)[C@H](CCCNC(=N)N)NC(=O)[C@H](CCC(N)=O)NC1=O [SEQ ID NO: 185, HRQRS(Cha)(N-MeGln)TLRXIQRX(Cha)(2-Nal)] (Ac-HRQRS[Cha][NMeQ]TLR[S5]IQR[S5][Cha][2Nal]-NH2; staple 11-15)
4760 | CC[C@H](C)[C@@H]1NC(=O)[C@@](C)(NC(=O)[C@H](CCCNC(=N)N)NC(=O)[C@H](CC(C)C)NC(=O)[C@@H](NC(=O)[C@H](CCC(N)=O)NC(=O)[C@H](CC(C)C)NC(=O)[C@H](CO)NC(=O)[C@H](CCCNC(=N)N)NC(=O)[C@H](CCC(N)=O)NC(=O)[C@H](CCCNC(=N)N)NC(=O)[C@H](Cc2c[nH]cn2)NC(C)=O)[C@@H](C)O)CCCC=CCCC[C@@](C)(C(=O)N[C@@H](CC2CCC2)C(=O)N[C@@H](Cc2ccc3ccccc3c2)C(N)=O)NC(=O)[C@H](CCCCNC(=N)N)NC(=O)[C@H](CCC(N)=O)NC1=O [SEQ ID NO: 171, HRQRSLQTLRXIQ(homoR)X(CBA)(2-Nal)] (Ac-HRQRSLQTLR[S5]IQ[hArg][S5][Cba][2Nal]-NH2; staple 11-15)
5170 | CC[C@H](C)[C@@H]1NC(=O)[C@@](C)(NC(=O)[C@H](CCCCNC(=N)N)NC(=O)[C@H](CC(C)C)NC(=O)[C@@H](NC(=O)[C@H](CCC(N)=O)NC(=O)[C@H](CC(C)C)NC(=O)[C@H](CO)NC(=O)[C@H](CCCNC(=N)N)NC(=O)[C@H](CCC(N)=O)NC(=O)[C@H](CCCNC(=N)N)NC(=O)[C@H](Cc2c[nH]cn2)NC(C)=O)[C@@H](C)O)CCCC=CCCC[C@@](C)(C(=O)N[C@@H](CC2CCC2)C(=O)N[C@@H](Cc2ccc3ccccc3c2)C(N)=O)NC(=O)[C@H](CCCNC(=N)N)NC(=O)[C@H](CCC(N)=O)NC1=O [SEQ ID NO: 170, HRQRSLQTL(homoR)XIQRX(CBA)(2-Nal)] (Ac-HRQRSLQTL[hArg][S5]IQR[S5][Cba][2Nal]-NH2; staple 11-15)
830 | CCCCCCCCCCCCCCCC(=O)NCCOCCOCCOCCOCCC(=O)N[C@@H](Cc1c[nH]cn1)C(=O)N[C@@H](CCCNC(=N)N)C(=O)N[C@@H](CCC(N)=O)C(=O)N[C@@H](CCCNC(=N)N)C(=O)N[C@@H](CO)C(=O)N[C@@H](CC(C)C)C(=O)N[C@@H](CCC(N)=O)C(=O)N[C@H](C(=O)N[C@@H](CC(C)C)C(=O)N[C@@H](CCCNC(=N)N)C(=O)N[C@@]1(C)CCCC=CCCC[C@@](C)(C(=O)N[C@@H](CC2CCC2)C(=O)N[C@@H](Cc2ccc3ccccc3c2)C(N)=O)NC(=O)[C@H](CCCNC(=N)N)NC(=O)[C@H](CCC(N)=O)NC(=O)[C@H]([C@@H](C)CC)NC1=O)[C@@H](C)O [SEQ ID NO: 160, HRQRSLQTLRXIQRX(CBA)(2-Nal)] ({Palmitoyl-PEG4}-HRQRSLQTLR[S5]IQR[S5][Cba][2Nal]-NH2; staple 11-15)
> 5000 | CC[C@H](C)[C@@H]1NC(=O)[C@@](C)(NC(=O)[C@H](CCCNC(=N)N)NC(=O)[C@H](CC(C)C)NC(=O)[C@@H](NC(=O)[C@H](CCC(N)=O)NC(=O)[C@H](CC(C)C)NC(=O)[C@H](CO)NC(=O)[C@H](CCCNC(=N)N)NC(=O)[C@H](CCC(=O)O)NC(=O)[C@H](CCCNC(=N)N)NC(=O)[C@H](Cc2c[nH]cn2)NC(C)=O)[C@@H](C)O)CCCC=CCCC[C@@](C)(C(=O)N[C@@H](CC2CCC2)C(=O)N[C@@H](Cc2ccc3ccccc3c2)C(N)=O)NC(=O)[C@H](CCC(N)=O)NC(=O)[C@H](CCC(N)=O)NC1=O [SEQ ID NO: 145, HRERSLQTLRXIQQX(CBA)(2-Nal)] (Ac-HRERSLQTLR[S5]IQQ[S5][Cba][2Nal]-NH2; staple 11-15)
4140 | CC[C@H](C)[C@@H]1NC(=O)[C@@](C)(NC(=O)[C@H](CCCNC(=N)N)NC(=O)[C@H](CC(C)C)NC(=O)[C@@H](NC(=O)[C@H](CCC(N)=O)NC(=O)[C@H](CC(C)C)NC(=O)[C@H](CO)NC(=O)[C@H](CCCNC(=N)N)N(C)C(=O)[C@H](CCC(N)=O)NC(=O)[C@H](CCCNC(=N)N)NC(=O)[C@H](Cc2c[nH]cn2)NC(C)=O)[C@@H](C)O)CCCC=CCCC[C@@](C)(C(=O)N[C@@H](CC2CCC2)C(=O)N[C@@H](Cc2ccc3ccccc3c2)C(N)=O)NC(=O)[C@H](CCCNC(=N)N)NC(=O)[C@H](CCC(N)=O)NC1=O [SEQ ID NO: 168, HRQ(N-methylR)SLQTLRXIQRX(CBA)(2-Nal)] (Ac-HRQ[NMeR]SLQTLR[S5]IQR[S5][Cba][2Nal]-NH2; staple 11-15; N-terminus and C-terminus assumed)
